Test results from US8563530B2, “Purine nucleoside phosphoramidate” (Gilead Pharmassel LLC, priority 2010, dated 2013).

Columns and labels:
[1] = GVS analysis (hygroscopicity); assay type: physicochemical
[2] = tested on: HCV replicon RNA-containing Huh7 cells (clone A cells); test: HCV replicon assay; assay type: cell-based; conditions: for Replicon assay result in combination with compound 1: synergism: assayed in combination with compound 1
Experimental: HCV replicon assay. HCV replicon RNA-containing Huh7 cells (clone A cells; Apath, LLC, St. Louis, Mo.) were kept at exponential growth in Dulbecco's modified Eagle's medium (high glucose) containing 10% fetal bovine serum, 4 mM L-glutamine and 1 mM sodium pyruvate, 1× nonessential amino acids, and G418 (1,000 μg/ml). Antiviral assays were performed in the same medium without G418. Cells were seeded in a 96-well plate at 1,500 cells per well, and test compounds were added immediately after seeding. Incubation time 4 days. At the end of the incubation step, total cellular RNA was isolated (RNeasy 96 kit; Qiagen). Replicon RNA and an internal control (TaqMan rRNA control reagents; Applied Biosystems) were amplified in a single-step multiplex RT-PCR protocol as recommended by the manufacturer.
To express the antiviral effectiveness of a compound, the threshold RT-PCR cycle of the test compound was subtracted from the average threshold RT-PCR cycle of the no-drug control (ΔCtHCV). A ΔCt of 3.3 equals a 1-log 10 reduction (equal to the 90% effective concentration [EC90]) in replicon RNA levels. The cytotoxicity of the test compound could also be expressed by calculating the ΔCtrRNA values. The ΔΔCt specificity parameter could then be introduced (ΔCtHCV−ΔCtrRNA), in which the levels of HCV RNA are normalized for the rRNA levels and calibrated against the no-drug control. Compound 1 was tested for its biological properties based on the preceding assay.

For `COc1nc(N)nc2c1ncn2[C@@H]1O[C@H](CO[P@@](=O)(N[C@@H](C)C(=O)OC(C)C)Oc2ccccc2)[C@@H](O)[C@@]1(C)F.O` [Compound 1.H2O, (S)-2-{(S)-[(1R,4R,5R)-5-(2-Amino-6-methoxy-purin-9-yl)-4-(R)-fluoro-3-hydroxy-4-methyl-tetrahydro-furan-2-ylmethoxy]-phenoxy-phosphorylamino}-propionic acid isopropyl ester monohydrate], which GVS hygroscopicity [1] is on record?
Its GVS hygroscopicity is “very low hygroscopicity”.

What about the “GVS reversible weight gain” value ([1]; at 90% RH) of the same compound?
Its value is 0.47 % w/w.

With `COc1nc(N)nc2c1ncn2[C@@H]1O[C@H](CO[P@@](=O)(N[C@@H](C)C(=O)OC(C)C)Oc2ccccc2)[C@@H](O)[C@@]1(C)F` [Compound 1, SP-(2S)-isopropyl 2-(((((2R,3R,4R,5R)-5-(2-amino-6-methoxy-9H-purin-9-yl)-4-fluoro-3-hydroxy-4-methyltetrahydrofuran-2-yl)methoxy)(phenoxy)phosphoryl)amino)propanoate] as the compound, how does the EC90 ([2]; Hepatitis C virus, Huh-7, 96 h, clone A cells, incubation time 4 days, replicon RNA by RT-PCR, 1-log 10 reduction, read-out: CloneA EC90) read?
The EC90 was 20 nM.

With `CC(C)(C)OC(=O)N[C@H]1CCCCC/C=C\[C@@H]2C[C@@]2(C(=O)NS(=O)(=O)C2CC2)NC(=O)[C@@H]2C[C@@H](OC(=O)N3Cc4cccc(F)c4C3)CN2C1=O` [ITMN-191] as the compound, how does the “Replicon assay result in combination with compound 1: synergism” value [2] read?
Its value is “synergism”.

For `CC(C)OC(=O)[C@H](C)N[P@](=O)(OC[C@H]1O[C@@H](n2ccc(=O)[nH]c2=O)[C@](C)(F)[C@@H]1O)Oc1ccccc1` [compound E], which “Replicon assay result in combination with compound 1: synergism” value [2] is on record?
The value was “synergism”.
